Data: patent US12139481B2, “Compositions comprising macrocycle derivatives incorporating bridged macrocycles and methods of producing and using same” (Southwestern Oklahoma State University, priority 2015, dated 2024)
“And” between values parts separate entries of the source, which are not always exact repeats. Equal values may be shown once.

Legend:
[1] = test system: Cryptococcus neoformans ATCC 90113; assay: Antimicrobial microdilution assay against Cryptococcus neoformans (modified CLSI/NCCLS, optical density); assay type: cell-based; details: for X more potent than Amphotericin B: C. neoformans, ratio of molar IC50 to Amphotericin B; for C. neoformans IC50 / IC50: in vitro, C. neoformans ATCC 90113; for IC50: read-out: C. neoformans IC50 (mol/L)
Outline: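 Fungicidal endpoint taken by subculturing 5 μL from each clear well onto agar, MFC being the lowest concentration with no regrowth. Duplicate wells of serially diluted compound (20% DMSO/saline) in RPMI pH 6.0, read at 630 nm pre- and post-incubation, under modified CLSI methods. IC50 means 50% growth inhibition against controls.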

[2] = test system: S. mansoni newly transformed schistosomula (NTS); assay: In vitro testing on Schistosoma mansoni newly transformed schistosomula (NTS), viability score; assay type: cell-based; details: NTS S. mansoni, 33 μM, 72 h
Protocol: Assays were prepared according to the laboratory SOP for the lab of Dr. Jennifer Keiser (Swiss Tropical and Public Health Institute, Basel). Harvested S. mansoni cercariae (Liberian strain) obtained from infected Biomphalaria glabrata snails were mechanically transformed into newly transformed schistosomula (NTS) following standard procedures. Briefly, snails were placed under light in the morning to stimulate cercarial shedding. The cercarial suspension was collected, cooled for 30 minutes, and then vigorously pipetted (30×) and vortexed (3 minutes). The suspension was then placed in the incubator (37° C. and 5% CO2) for 30 minutes, and the vortexing and pipetting steps were repeated. The transformation was complete at this point, and the tails were separated from the heads by rinsing three times with cold HBSS. NTS were then incubated overnight in culture medium overnight and used the next day.
The original stock compounds (which were not already dissolved) were dissolved in dimethyl sulfoxide (DMSO) to a concentration of 10 mM. 100 NTS were placed in each well of a 96-well plate with culture medium, and the test compound for a final well volume of 250 μl. […] NTS incubated with no more than 1% DMSO served as control. NTS were kept in an incubator at 37° C. and 5% CO2 for up to 72 hours. After 72 hours, the condition of the NTS was microscopically evaluated using a scale from 3 (normal activity and no tegument alteration) to 0 (dead, completely granulated).

[3] = test system: L. donovani promastigotes; assay: Antileishmanial Alamar Blue assay on promastigotes; assay type: cell-based, Leishmania donovani; details: for X more potent than Pentamidine: L. donovani, ratio of molar IC50 to Pentamidine; for L. donovani IC50 / IC50: promastigotes, 48 hours, Alamar Blue; for IC50: read-out: L. donavani IC50
Outline: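 Alamar Blue fluorescence (544/590 nm) quantified growth after 48 hours at 26° C of compound-treated promastigotes. Parasites were seeded at 5×10^5/mL in RPMI 1640 plus 10% FCS; drug range 50-3.1 μg/mL, and IC50 derived by plotting percent growth against test concentration.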

[4] = test system: C. glabrata ATCC 90030; assay: Antifungal broth dilution assay against C. glabrata (modified CLSI); assay type: cell-based, Candida glabrata; details: for C. glabrata IC50 / IC50: in vitro; for IC50: converted with molecular weight; for X more potent than Amphotericin B: molar IC50 ratio versus amphotericin B
Outline: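 Growth read by optical density at 530 nm, duplicate wells, 1% final DMSO. Staphylococcus spp.: Mueller-Hinton pH 7.3, 5.0×10^5 CFU/ml, 35 °C for 16-20 h; Candida spp.: RPMI/dextrose/glutamine/MOPS pH 6.0, 1.5×10^3 CFU/ml, 35 °C for 46-50 h. Reported values are 50% inhibition versus controls, no-growth MIC, and killing MFC/MBC.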

Compound	X more potent than Amphotericin B [1]	C. neoformans IC50 [1]	IC50 [1]	Effect at 72 h (%) [2]	X more potent than Pentamidine [3]	L. donovani IC50 [3]	IC50 [3]	C. glabrata IC50 [4]	IC50 [4]	X more potent than Amphotericin B [4]
CN1CCCN2CCN(CCCN(Cc3cc(CN4CCCN5CCN(C)CCCN(CC5)CC4)cc(CN4CCCN5CCN(C)CCCN(CC5)CC4)c3)CC2)CC1 [BNS018, tris-CB-cyclams]	2.21	0.090 µg/mL	0.108 µM	11.71%	0.57	7.73 µg/mL	9.25 µM			
CC(=O)[O-].CC(=O)[O-].CC(=O)[O-].CN1CCN2CCN(CC1)CCN(Cc1cc(CN3CCN4CCN(C)CCN(CC4)CC3)cc(CN3CCN4CCN(C)CCN(CC4)CC3)c1)CC2.F[P-](F)(F)(F)(F)F.F[P-](F)(F)(F)(F)F.F[P-](F)(F)(F)(F)F.O.O.O.O.O.O.[Ni+2].[Ni+2].[Ni+2] [BNS19]				18.02%				4.900 µg/mL	2.97 µM	0.48
F[P-](F)(F)(F)(F)F.F[P-](F)(F)(F)(F)F.F[P-](F)(F)(F)(F)F.F[P-](F)(F)(F)(F)F.F[P-](F)(F)(F)(F)F.F[P-](F)(F)(F)(F)F.[Ni+2].[Ni+2].[Ni+2].c1c(CN2CCCN3CCN(CCCNCC2)CC3)cc(CN2CCCN3CCN(CCCNCC2)CC3)cc1CN1CCCN2CCN(CCCNCC1)CC2 [CDG024, [Ni3(tris-SB-Cyclams)][PF6]6]	0.18	2.440 µg/mL	1.33 µM	5.41%						
CC(=O)[O-].CC(=O)[O-].CC(=O)[O-].F[P-](F)(F)(F)(F)F.F[P-](F)(F)(F)(F)F.F[P-](F)(F)(F)(F)F.[Co+2].[Co+2].[Co+2].c1c(CN2CCCN3CCN(CCCNCC2)CC3)cc(CN2CCCN3CCN(CCCNCC2)CC3)cc1CN1CCCN2CCN(CCCNCC1)CC2 [CDG025, [Co3(tris-SB-Cyclams)(OAc)3][PF6]3]	0.21	1.800 µg/mL	1.14 µM	18.02%				1.500 µg/mL	0.948 µM	1.50
CN1CCN2CCN(C)CCN(CC1)CC2.F[P-](F)(F)(F)(F)F.[Cl-].[Cl-].[Mn+3] [CNV06, [Mn(Bcyclen)Cl2]PF6]	0.02	6.390 µg/mL and 5.579 µg/mL	12.8 µM and 11.2 µM	0.00%						
CC(=O)[O-].CC(=O)[O-].CN1CCN2CCN(CC1)CCN(Cc1cccc(CN3CCN4CCN(C)CCN(CC4)CC3)c1)CC2.F[P-](F)(F)(F)(F)F.F[P-](F)(F)(F)(F)F.[Cu+2].[Cu+2] [DJC06A, [Cu2(m-CB-Cyclens)(OAc)2][PF6]2]	0.04	6.710 µg/mL	6.32 µM	5.41%						
CC(=O)[O-].CC(=O)[O-].CN1CCN2CCN(CC1)CCN(Cc1cccc(CN3CCN4CCN(C)CCN(CC4)CC3)c1)CC2.F[P-](F)(F)(F)(F)F.F[P-](F)(F)(F)(F)F.[Zn+2].[Zn+2] [DJC07, [Zn2(m-CB-Cyclens)(OAc)2][PF6]2]	0.03	7.410 µg/mL		0.00%						
Cl.Cl.Cl.Cl.Cl.Cl.Cl.Cl.O.O.O.O.c1cc(CN2CCCN3CCN(CCCNCC2)CC3)cc(CN2CCCN3CCN(CCCNCC2)CC3)c1 [KS226, m-SB-cyclams HCl salt]	3.13	0.070 µg/mL	0.0762 µM	5.41%	0.28	17.61 µg/mL	19.2 µM			
CC(=O)[O-].CC(=O)[O-].F[P-](F)(F)(F)(F)F.F[P-](F)(F)(F)(F)F.[Cu+2].[Cu+2].c1cc(CN2CCNCCN3CCN(CC3)CC2)ccc1CN1CCNCCN2CCN(CC2)CC1 [OB28, [Cu2(p-SB-Cyclens)(OAc)2][PF6]2]	0.05	5.210 µg/mL	5.04 µM	0.00%						
CC(=O)[O-].CC(=O)[O-].F[P-](F)(F)(F)(F)F.F[P-](F)(F)(F)(F)F.O.[Ni+2].[Ni+2].c1cc(CN2CCNCCN3CCN(CC3)CC2)ccc1CN1CCNCCN2CCN(CC2)CC1 [OB29, [Ni2(p-SB-Cyclens)(OAc)2][PF6]2•H2O]	0.31	≤ 0.800 µg/mL	0.768 µM	5.41%						
CC(=O)[O-].F[P-](F)(F)(F)(F)F.[Zn+2].c1ccc(CN2CCN3CCN(CC2)CCN(Cc2ccccc2)CC3)cc1 [RM42, [Zn(Bn2Bcyclen)(OAc)]PF6]				30.63%	0.73	4.73 µg/mL				
CC(=O)[O-].F[P-](F)(F)(F)(F)F.[Ni+2].c1ccc(CN2CCN3CCN(CC2)CCN(Cc2ccccc2)CC3)cc1 [TC10, [Ni(Bn2Bcyclen)(OAc)]PF6]				30.63%	0.31	10.95 µg/mL	17.1 µM			
CC(=O)[O-].F[P-](F)(F)(F)(F)F.[Co+2].c1ccc(CN2CCCN3CCN(CCCN(Cc4ccccc4)CC3)CC2)cc1 [TC11, [Co(Bn2Bcyclam)(OAc)]PF6]				24.32%	0.10	35.29 µg/mL	52.7 µM			
[Cu2(m-SB-Cyclams)(OAc)2][PF6]2 [KS24]	0.08	3.180 µg/mL	3.08 µM	18.02%						
[Cu3(tris-SB-Cyclens)(OAc)3][PF6]3•0.5NH4PF6 [CDG022]	0.07	5.480 µg/mL	3.44 µM	11.71%						
[Ni2(m-SB-Cyclams)(OAc)2][PF6]2 [KS25]	0.02	16.030 µg/mL	15.7 µM	18.02%						
[Ni(Bn1Me1Bcyclam)(OAc)]PF6•0.5NH4PF6 [TRH11B]				24.32%	0.09	38.64 µg/mL	59.7 µM			
[Zn2(m-SB-Cyclams)(OAc)2][PF6]2 [KS26]	0.02	12.510 µg/mL	12.1 µM	11.71%						
[Zn3(tris-SB-Cyclens)(OAc)3][PF6]3•0.5NH4PF6 [CDG023]	0.29	1.310 µg/mL	0.819 µM	18.02%						
m-CB-cyclens HCl salt [DJC05C]	0.23	0.940 µg/mL	1.06 µM	5.41%	0.21	22.89 µg/mL	25.7 µM			
